Our source for the EC50 and Ki values is patent publication US9493411B2 (AbbVie Inc., priority 2013, dated 2016).

Experiment [1] has as its system breast cancer cell line MX-1. Nature of the experiment: MX-1 cell line proliferation assay. The settings on record: Homo sapiens, MX1, 72 h, MX-1 cells, 3-day proliferation assay, Cell Titer Glo; read-out: Cellular proliferation: EC50. Type of experiment: cell-based. As for the experimental part: The impact of compounds of the Examples on cancer cell proliferation was determined using the breast cancer cell line MX-1 (ATCC) in a 3-day proliferation assay and the data are reported in Table 1. MX-1 cells were maintained in RPMI 1640 medium (Sigma) supplemented with 10% FBS at 37° C. and an atmosphere of 5% CO2. For compound testing, MX-1 cells were plated in 96-well black bottom plates at a density of 5000 cells/well in 90 μL of culture media and incubated at 37° overnight to allow cell adhesion and spreading. Compound dilution series were prepared in DMSO via a 3-fold serial dilution from 3 mM to 0.1 μM. The DMSO dilution series were then diluted 1:100 in phosphate buffered saline, and 10 μL of the resulted solution were added to the appropriate wells of the MX-1 cell plate. The final compound concentrations in the wells were 3, 1, 0.3, 0.1, 0.03, 0.01, 0.003, 0.001, 0.0003 and 0.0001 μM.
Luminescence readings from the Cell Titer Glo assay were normalized to the DMSO treated cells and analyzed using the GraphPad Prism software with sigmoidal curve fitting to obtain EC50s. The minimum significant ratio (MSR) was determined to evaluate assay reproducibility (Eastwood et al., (2006) J Biomol Screen, 11: 253-261).

In a further experiment the target is T1, BRD4 (BDII_E352-M457) (Homo sapiens, UniProt O60885).
T1 construct: made in house
Nature of the experiment: TR-FRET bromodomain binding assay, BRD4 second bromodomain. The settings on record: His-tagged BD2, Alexa647-labeled probe 30 nM; Ki calculated from IC50. The procedure, abridged:
(§1)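 Read-out: TR-FRET ratio after 1 h at room temperature, normalized to controls and fitted for IC50, then converted to Ki. Reaction held 8 nM His-tagged domain, 1 nM Eu-anti-His antibody, Alexa647 probe (BDI 100 nM; BDII 30 nM) and test compound in 2% DMSO.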

The next experiment concerns the target T2, BRD4 (BDI_K57-E168) (Homo sapiens, UniProt O60885).
T2 construct: BD1: amino acids K57-E168; made in house
In words: TR-FRET bromodomain binding assay, BRD4 first bromodomain. The settings on record: His-tagged BD1, Alexa647-labeled probe 100 nM; Ki calculated from IC50. The procedure, abridged:
as §1

Regarding `COc1cc(-c2cc(C(N)=O)c(C)[nH]2)cc(OC)c1OC` [Example 149, 2-methyl-5-(3,4,5-trimethoxyphenyl)-1H-pyrrole-3-carboxamide], the EC50 in experiment [1] was found to be 2.32 µM. The Ki at BRD4 (BDII_E352-M457) is 3.88 µM; at BRD4 (BDI_K57-E168), 0.884 µM.
As to `Cc1[nH]c(-c2cccc(-c3cccc(CN4CCN(C)CC4)c3)c2)cc1C(N)=O` [Example 158, 2-methyl-5-{3′-[(4-methylpiperazin-1-yl)methyl]biphenyl-3-yl}-1H-pyrrole-3-carboxamide], the EC50 in experiment [1] turned out to be 7.75 µM. The results for the inhibition constant (Ki) at BRD4 (BDII_E352-M457) and at BRD4 (BDI_K57-E168) were 2.14 µM and 1.5 µM, respectively.
As for `Cc1[nH]c(-c2cccc(-c3ccc(C(=O)NCCN(C)C)cc3)c2)cc1C(N)=O` [Example 159, 5-(4′-{[2-(dimethylamino)ethyl]carbamoyl}biphenyl-3-yl)-2-methyl-1H-pyrrole-3-carboxamide], the EC50 in experiment [1] is 28.6 µM. Also, the Ki at BRD4 (BDII_E352-M457) is 2.1 µM; on BRD4 (BDI_K57-E168), 1.08 µM.
For `Cc1[nH]c(-c2cc(CCO)ccc2OCc2ccccc2)cc1C(N)=O` [Example 167, 5-[2-(benzyloxy)-5-(2-hydroxyethyl)phenyl]-2-methyl-1H-pyrrole-3-carboxamide], in that order: greater than 3 µM, 2.25 µM and 0.627 µM.
Turning to `Cc1[nH]c(-c2cc(S(N)(=O)=O)ccc2Oc2ccc(F)cc2F)cc1C(N)=O` [Example 168, 5-[2-(2,4-difluorophenoxy)-5-sulfamoylphenyl]-2-methyl-1H-pyrrole-3-carboxamide], the EC50 in experiment [1] is greater than 3 µM. For the same compound, the Ki is 0.757 µM on BRD4 (BDII_E352-M457) and 0.106 µM on BRD4 (BDI_K57-E168).
